Results reported in patent US12390482B2, “Neurolytic agents and methods of using and identifying same” (priority 2021, dated 2025).

What was measured:
[1] = system: WT mouse embryonic dorsal root ganglion (DRG) neurons; test: Axon degeneration in cultured WT DRG neurons; format: cell-based; conditions: for activity as SARM1 activator (tested compounds): axon degeneration and SARM1 activation assays
Method: (§1) DRG neuron culture: Mouse DRG culture was as described previously. Mouse DRGs were dissected at embryonic day 13.5. Approximately 50 ganglia were collected from each embryo and dissociated in 0.05% Trypsin containing 0.02% EDTA (Gibco) at 37° C. for 20 min. The DRG neurons were washed 3 times with DRG culture medium after incubation with Trypsin. Cells were seeded as spot cultures in 96-tissue culture plates (Corning) coated with 0.1 mg/ml poly-D-lysine and 0.1 mg/ml laminin. They were cultured in Neurobasal (Gibco) containing 2% B27 (Invitrogen), 100 ng/ml 2.5S NGF (Harlan Bioproducts), and 1 μM 5-fluoro-2′-deoxyuridine/1 μM uridine. The culture medium was exchanged with fresh DRG culture medium every 2-3 days. Lentiviruses were added 3 days after seeding (DIV3).
[…] After axon transection, bright-field images of distal axons were taken using the Operetta automated imaging system (PerkinElmer). Axon degeneration indexes were calculated from these bright-field images using ImageJ (NIH). The axon degeneration index was calculated as the ratio of fragmented axon areas as previously described. Indexes were calculated as the average of six fields per well.

WT DRG neurons = test: Metabolite measurement by LC-MS/MS in WT DRG neurons; format: cell-based, mouse; conditions: neurons pre-treated with FK866 prior to 3-AP addition
Method: as §1
Metabolite measurement using LC-MS/MS: Lyophilized samples were reconstituted with 50 μl of 5 mM ammonium formate and centrifuged at 12,000 g for 10 min. Cleared supernatants were transferred to sample vials. Serial dilutions of standards for each metabolite in 5 mM ammonium formate were used for calibration. HPLC-mass spectrometry analysis was performed on an Agilent 1290 Infinity II liquid chromatography system (Agilent Technologies, Santa Clara, CA) with a flexible pump, multisampler, sample cooler and an MCT containing an Atlantis T3 column (2.1×150 mm, 3 μm) and VanGuard guard cartridge (2.1 mm×5 mm, 3 μm) (Waters, Milford, MA), coupled to an Agilent 6470 Triple Quad mass spectrometer (Agilent Technologies, Santa Clara, CA). The mobile phase (0.15 ml/min) was 5 mM ammonium formate in water (A) and 100% methanol (B). The column was equilibrated with 0% B, maintained after injection for 2 min, then a linear gradient to 20% B applied over 4 min. The column was then ramped to 50% B over 2 min, and held at 50% for 2 min, then reverted back to 0% B over the next 5 min and allowed to re-equilibrate at 0% B for 9 min. The total run time was 24 min per sample. […] Raw data were acquired and quantified using MassHunter Workstation software version B.08.00 for 6400 Series Triple Quadrupole (Agilent Technologies, Santa Clara, CA).

sensory neurons = test: Vacor-induced degeneration of sensory neurons; format: cell-based
Sarm1 KO DRG neurons = test: Axon degeneration and neuronal death in cultured Sarm1 KO DRG neurons; format: cell-based, mouse
Method: as §1
Quantification of axon degeneration: After culture for 7 days, axotomy was performed by cutting DRG axons manually with a razor blade. After axon transection, bright-field images of distal axons were taken using the Operetta automated imaging system (PerkinElmer). Axon degeneration indexes were calculated from these bright-field images using ImageJ (NIH). The axon degeneration index was calculated as the ratio of fragmented axon areas as previously described. Indexes were calculated as the average of six fields per well.

SARM1 = target: T1, SARM1 (Homo sapiens, UniProt Q6SZW1); test: SARM1 activation assay by PC6 fluorescence; format: biochemical
T1 construct: StrepTag (N); made in house; host or cells: HEK 293T cells stably expressing NRK1
T1 sequence (Q6SZW1 28-724): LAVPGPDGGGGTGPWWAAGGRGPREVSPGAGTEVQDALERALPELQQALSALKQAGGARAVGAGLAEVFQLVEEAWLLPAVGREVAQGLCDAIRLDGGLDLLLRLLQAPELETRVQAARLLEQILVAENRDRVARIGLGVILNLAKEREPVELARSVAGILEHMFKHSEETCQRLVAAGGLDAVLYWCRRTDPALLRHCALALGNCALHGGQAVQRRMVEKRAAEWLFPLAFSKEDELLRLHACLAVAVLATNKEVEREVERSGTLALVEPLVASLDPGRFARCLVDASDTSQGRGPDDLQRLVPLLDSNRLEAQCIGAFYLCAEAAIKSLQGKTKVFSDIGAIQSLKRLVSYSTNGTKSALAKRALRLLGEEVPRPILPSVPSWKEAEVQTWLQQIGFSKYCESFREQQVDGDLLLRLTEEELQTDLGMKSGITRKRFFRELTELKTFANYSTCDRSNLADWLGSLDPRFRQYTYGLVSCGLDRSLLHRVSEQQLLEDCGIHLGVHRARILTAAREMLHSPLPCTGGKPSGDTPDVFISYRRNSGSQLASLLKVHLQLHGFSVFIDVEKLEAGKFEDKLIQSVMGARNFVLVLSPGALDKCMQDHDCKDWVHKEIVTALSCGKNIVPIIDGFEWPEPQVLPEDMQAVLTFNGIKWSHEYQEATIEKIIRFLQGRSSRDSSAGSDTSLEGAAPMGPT
Method: SARM1 protein purification from mammalian cells: A HEK 293T cell line stably expressing NRK1 was used to produce SARM1 protein as previously described. In short, plasmid containing N-terminal StrepTag-SARM1 was transfected into NRK1-HEK 293T cells using X-tremeGENE reagent (Millipore Sigma). After 2 days, the cells were harvested and re-suspended with binding buffer (100 mM Tris-HCL pH 8, 150 mM sodium chloride, 0.01% Tween-20 with EDTA-free protease inhibitors (Pierce)). After sonication, cell debris was removed by centrifugation at 15,000×g for 10 minutes. Soluble lysates were then mixed with StrepTactin Megbeads (Cube Biotech) equilibrated with the same binding buffer. After incubation at 4° C. for 60 minutes, beads were washed with washing buffer (25 mM HEPES, pH 7.5 and 150 mM NaCl with EDTA-free protease inhibitors). […]
SARM1 activation assay by PC6 fluorescence: Modified from previous paper, typically, in a mixture of 50 μl, ˜200 ng of SARM1(on-beads) was mixed with 50 μM PC6, 50 μM NAD^+ and 0 to 100 μM of purified 3APMN. The reaction was carried out in a Bio Tek's Cytation 5 plate reader at 25° C. Fluorescence signal, which corresponds to PAD6 formation, was recorded with 405 nm excitation and 520 nm emission wavelengths every 2 minutes. The production rate of PAD6 was calculated based on the fluorescence changes within the first 30 minutes of reaction.

NC(=O)c1cccnc1 [Nam, nicotinamide]
effect of pretreatment on 3-AP-induced axon degeneration ([1]; Nam 0, 50, 100 or 200 μM overnight, then 3-AP 500 μM): reduces 3-AP-induced axon degeneration in a dose-dependent manner

CC(=O)c1ccccn1 [2-acetylpyridine]
activity as SARM1 activator (tested compounds) [1]: did not work

Nc1cccnc1 [3-aminopyridine]
activity as SARM1 activator (tested compounds) [1]: did not work

Nc1ccncc1 [4-aminopyridine]
activity as SARM1 activator (tested compounds) [1]: did not work

O=C(/C=C/c1cccnc1)NCCCCC1CCN(C(=O)c2ccccc2)CC1 [FK866, reference compound]
3-APMN, 3-APAD and cADPR levels in 3-AP treated neurons (WT DRG neurons): 3-APMN and 3-APAD remain at baseline, and cADPR levels do not increase | effect on neurotoxic actions of 3-AP ([1]; FK866 25, 50 or 100 nM overnight, then 3-AP 300 μM): blocks the neurotoxic actions of 3-AP

O=C(NCc1cccnc1)Nc1ccc([N+](=O)[O-])cc1 [Vacor, N-(4-Nitrophenyl)-N′-[(pyridin-3-yl)methyl]urea]
SARM1 dependence of neuron degeneration (sensory neurons; FIG. 6): SARM1-dependent | effect of local application to neurites (sensory neurons; local application to neurites): causes distal neurite degeneration without harming neuron cell bodies

Nc1ccccn1 [2-aminopyridine]
axon degeneration (Sarm1 KO DRG neurons): not in Sarm1 KO neurons | axon degeneration ([1]; WT neurons): causes axon degeneration

CC(=O)c1ccc[n+]([C@@H]2O[C@H](COP(=O)([O-])O)[C@@H](O)[C@H]2O)c1 [3-APMN, 3-acetylpyridine mononucleotide]
EC50 (SARM1): ~44 µM

CC(=O)c1ccncc1 [4-acetylpyridine]
activity as SARM1 activator (tested compounds) [1]: did not work
